Source: patent publication US20160355530A1, “HEPATITIS C INHIBITORS AND USES THEREOF” (AbbVie Inc., priority 2010, published 2016)
pEC50, pIC50: −log10 of the molar value. Read-outs that look alike come from different tables or passages of the source.

Assays:
[1] = target: T1, HCV NS5B polymerase 1a-H77 (Hepatitis C virus genotype 1a, UniProt P27958); test: biochemical; set-up: species or system HCV genotype 1a; conditions: enzyme, strain 1a H77; read-out: HCV Polymerase Strain 1a H77 IC50
T1 construct: six-histidine tag; made in house; host or cells: E. coli
T1 sequence (P27958 2421-2990): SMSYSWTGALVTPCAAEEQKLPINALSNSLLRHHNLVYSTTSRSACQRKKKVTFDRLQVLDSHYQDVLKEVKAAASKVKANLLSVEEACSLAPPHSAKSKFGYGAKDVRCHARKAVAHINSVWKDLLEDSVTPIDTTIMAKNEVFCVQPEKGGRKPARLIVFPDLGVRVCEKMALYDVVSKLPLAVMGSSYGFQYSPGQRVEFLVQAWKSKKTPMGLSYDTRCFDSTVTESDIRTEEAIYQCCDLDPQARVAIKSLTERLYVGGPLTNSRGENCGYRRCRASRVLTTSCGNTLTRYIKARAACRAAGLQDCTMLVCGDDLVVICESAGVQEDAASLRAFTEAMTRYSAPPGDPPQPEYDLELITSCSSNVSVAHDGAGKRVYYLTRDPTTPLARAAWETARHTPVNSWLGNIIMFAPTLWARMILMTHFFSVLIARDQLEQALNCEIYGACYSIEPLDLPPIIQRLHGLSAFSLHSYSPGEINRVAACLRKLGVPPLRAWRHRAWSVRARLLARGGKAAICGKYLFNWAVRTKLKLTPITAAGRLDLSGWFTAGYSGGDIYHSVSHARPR
Summary of the method: (§1)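 E. coli-expressed NS5B (residues 1-570, His-tagged) transcribed a 2.1 kb HCV 1b negative-strand 3′-end RNA template (5 nM) with 20 μM CTP, 20 μM ATP and 0.284 μM [3H]UTP for 3 h at 30° C. Spermine-precipitated RNA was filter-captured and counted by scintillation; IC50 from nonlinear regression.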

[2] = target: T2, HCV NS5B polymerase 1a-H77-C316Y (Hepatitis C virus genotype 1a, UniProt P27958, C2736Y); test: biochemical; set-up: species or system HCV genotype 1a
T2 construct: six-histidine tag; made in house; host or cells: E. coli
T2 sequence (P27958 2421-2990 C2736Y): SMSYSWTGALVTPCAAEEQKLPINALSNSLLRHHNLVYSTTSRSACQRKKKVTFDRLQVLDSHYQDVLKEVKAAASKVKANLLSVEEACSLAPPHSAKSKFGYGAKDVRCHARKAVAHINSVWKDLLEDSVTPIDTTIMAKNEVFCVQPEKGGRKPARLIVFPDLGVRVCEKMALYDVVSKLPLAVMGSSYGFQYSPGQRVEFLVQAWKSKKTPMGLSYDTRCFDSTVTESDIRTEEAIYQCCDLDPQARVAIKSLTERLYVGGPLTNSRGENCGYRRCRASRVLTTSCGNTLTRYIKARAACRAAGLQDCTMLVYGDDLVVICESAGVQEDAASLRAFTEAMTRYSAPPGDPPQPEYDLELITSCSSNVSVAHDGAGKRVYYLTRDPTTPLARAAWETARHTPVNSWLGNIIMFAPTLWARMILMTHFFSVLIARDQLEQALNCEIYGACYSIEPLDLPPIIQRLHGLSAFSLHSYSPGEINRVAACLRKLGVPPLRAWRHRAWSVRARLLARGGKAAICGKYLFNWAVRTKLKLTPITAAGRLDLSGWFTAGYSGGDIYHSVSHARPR
Summary of the method: as §1

[3] = system: HCV NS5B polymerase 1a-H77-C316Y; test: biochemical; set-up: species or system HCV genotype 1a; conditions: ratio of enzyme IC50s, 1a H77-C316Y / 1a H77
Summary of the method: as §1

[4] = target: T3, HCV NS5B polymerase 1b BK strain (Hepatitis C virus genotype 1b, UniProt P26663); test: HCV NS5B polymerase enzymatic inhibition assay, strain 1b BK; assay type: biochemical; conditions: enzyme, strain 1b BK; read-out: HCV Polymerase Strain 1b BK IC50
T3 construct: six-histidine tag; made in house; host or cells: E. coli
T3 sequence (P26663 2420-2989): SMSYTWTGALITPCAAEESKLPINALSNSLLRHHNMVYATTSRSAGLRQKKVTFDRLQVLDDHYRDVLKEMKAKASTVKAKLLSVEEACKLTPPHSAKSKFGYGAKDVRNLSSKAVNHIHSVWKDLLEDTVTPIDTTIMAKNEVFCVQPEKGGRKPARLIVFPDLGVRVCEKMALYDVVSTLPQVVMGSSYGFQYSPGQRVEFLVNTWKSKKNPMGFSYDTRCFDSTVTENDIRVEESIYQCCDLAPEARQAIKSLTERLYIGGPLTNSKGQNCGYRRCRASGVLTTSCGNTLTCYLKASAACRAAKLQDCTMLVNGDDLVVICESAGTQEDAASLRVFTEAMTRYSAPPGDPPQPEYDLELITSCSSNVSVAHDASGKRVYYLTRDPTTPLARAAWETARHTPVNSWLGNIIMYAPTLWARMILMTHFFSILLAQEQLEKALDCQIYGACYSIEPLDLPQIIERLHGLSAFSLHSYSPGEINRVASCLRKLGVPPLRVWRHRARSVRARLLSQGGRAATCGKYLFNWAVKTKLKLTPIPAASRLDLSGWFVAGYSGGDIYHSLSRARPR
Summary of the method: as §1

[5] = system: HCV 1a-H77 subgenomic replicon; test: microbe, parasite or virus in culture; assay type: cell-based, HCV genotype 1a; conditions: Hepatitis C virus, stable replicon
[6] = system: HCV 1b-BB7 subgenomic replicon; test: microbe, parasite or virus in culture; assay type: cell-based, HCV genotype 1b; conditions: Hepatitis C virus, stable replicon
[7] = system: chimeric replicon with 2a-J6CF-derived NS5B; test: microbe, parasite or virus in culture; assay type: cell-based, HCV genotype 2a; conditions: Hepatitis C virus, read-out: 2a chimera 5% FBS EC50
[8] = system: chimeric replicon with genotype 2b NS5B; test: microbe, parasite or virus in culture; assay type: cell-based, HCV genotype 2b; conditions: Hepatitis C virus, read-out: 2b chimera 5% FBS EC50
[9] = system: chimeric replicon with genotype 3a NS5B; test: microbe, parasite or virus in culture; assay type: cell-based, HCV genotype 3a; conditions: Hepatitis C virus, read-out: 3a chimera 5% FBS EC50
[10] = system: chimeric replicon with genotype 4a NS5B; test: microbe, parasite or virus in culture; assay type: cell-based, HCV genotype 4a; conditions: Hepatitis C virus, read-out: 4a chimera 5% FBS EC50
[11] = system: HCV 1a-H77 transient subgenomic replicon in Huh-7 derived cell line; test: microbe, parasite or virus in culture; assay type: cell-based, HCV genotype 1a; conditions: Hepatitis C virus, Huh-7; transient replicon, 5% FBS; read-out: Transient Replicon 1a H77 5% FBS EC50
Summary of the method: (§2)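 Transient format: T7-transcribed replicon RNA lacking Neo, electroporated into Huh-7-derived cells (5×10^3/well), input RNA checked by luciferase at 4 h. Three-fold compound dilution series, 0.5% DMSO, 4 days at 37° C; EC50 from luciferase signal in lysed cells.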

[12] = system: HCV 1a-H77-C316Y transient subgenomic replicon in Huh-7 derived cell line; test: microbe, parasite or virus in culture; assay type: cell-based, HCV genotype 1a; conditions: for pEC50: Hepatitis C virus, Huh-7, read-out: Transient Replicon 1a H77-C316Y 5% FBS EC50; for Transient Replicon Fold Resistance C316Y/1a: ratio of transient replicon EC50s, C316Y / 1a H77
Summary of the method: as §2

[13] = 5% FBS, absence of human plasma, read-out: Stable Replicon 1a H77 5% FBS EC50
[14] = strain 1a H77, 5% FBS + 40% human plasma, read-out: 1a H77 5% FBS + 40% Human Plasma EC50
[15] = strain 1a H77, 5% FBS, no human plasma, read-out: 1a H77 5% FBS EC50
[16] = strain 1a H77, 5% FBS, read-out: 1a H77 5% FBS EC50
[17] = strain 1b BB7, 5% FBS + 40% human plasma, read-out: 1b BB7 5% FBS + 40% Human Plasma EC50
[18] = strain 1b BB7, 5% FBS, no human plasma, read-out: 1b BB7 5% FBS EC50
[19] = strain 1b BB7, 5% FBS, read-out: 1b BB7 5% FBS EC50

SMILES | pIC50 [1] | pIC50 [2] | C316Y/1a Fold Resistance [3] [fold] | pIC50 [4] | pEC50 [5, 13] | pEC50 [5, 14] | pEC50 [5, 15] | pEC50 [5, 16] | pEC50 [6, 17] | pEC50 [6, 18] | pEC50 [6, 19] | pEC50 [7] | pEC50 [8] | pEC50 [9] | pEC50 [10] | pEC50 [11] | pEC50 [12] | Transient Replicon Fold Resistance C316Y/1a [12] [fold]
CC(C)(C#N)CCCCN(c1cc2oc(-c3ccc(F)cc3)c(C3=NOCCN3)c2cc1C1CC1)S(C)(=O)=O [Example 115, N-(5-cyano-5-methylhexyl)-N-[5-cyclopropyl-3-(5,6-dihydro-4H-1,2,4-oxadiazin-3-yl)-2-(4-fluorophenyl)-1-benzofuran-6-yl]methanesulfonamide] | 8.41 | 7.43 | 10 | 7.48 | 8.02 | 7.42 | 8.02 | 8.02 | 6.90 | 7.85 | 7.85 | 6.78 | 6.84 | 7.52 | 6.91 | 8.14 | 7.04 | 12
CCOC(=O)CCCN(c1cc2oc(-c3ccc(F)cc3)c(C3=NOCCN3)c2cc1C1CC1)S(C)(=O)=O [Example 121, ethyl 4-{[5-cyclopropyl-3-(5,6-dihydro-4H-1,2,4-oxadiazin-3-yl)-2-(4-fluorophenyl)-1-benzofuran-6-yl](methylsulfonyl)amino}butanoate] | 8.46 | 7.40 | 12 | 7.26 | 7.41 | 6.51 | 7.41 | 7.41 | 6.41 | 7.17 | 7.17 | 6.00 | 6.00 | 6.92 | 6.01 | 7.55 | 6.54 | 10
CS(=O)(=O)CCCCN(c1cc2oc(-c3ccc(F)cc3)c(C3=NOCCN3)c2cc1C1CC1)S(C)(=O)=O [Example 122, N-[5-cyclopropyl-3-(5,6-dihydro-4H-1,2,4-oxadiazin-3-yl)-2-(4-fluorophenyl)-1-benzofuran-6-yl]-N-[4-(methylsulfonyl)butyl]methanesulfonamide] | 8.16 | 7.34 | 7 | 7.60 | 8.08 | 7.30 | 8.08 | 8.08 | 7.09 | 7.96 | 7.96 | 6.89 | 6.90 | 7.49 | 7.08 | 8.17 | 7.21 | 9
CS(=O)(=O)N(CCC1CCS(=O)(=O)C1)c1cc2oc(-c3ccc(F)cc3)c(C3=NOCCN3)c2cc1C1CC1 (stereo not drawn) [Example 123] | 8.02 | 7.12 | 8 | 7.85 | 7.96 | 6.97 | 7.96 | 7.96 | 6.68 | 7.74 | 7.74 | 6.79 | 6.98 | 7.44 | 7.24 | 7.97 | 7.10 | 7
CS(=O)(=O)N(CCCS(N)(=O)=O)c1cc2oc(-c3ccc(F)cc3)c(C3=NOCCN3)c2cc1C1CC1 [Example 124, 3-{[5-cyclopropyl-3-(5,6-dihydro-4H-1,2,4-oxadiazin-3-yl)-2-(4-fluorophenyl)-1-benzofuran-6-yl](methylsulfonyl)amino}propane-1-sulfonamide] | 8.35 | 7.43 | 8 | 7.54 | 7.35 | 6.30 | 7.35 | 7.35 | 6.01 | 7.36 | 7.36 | 6.00 | 6.00 | 6.86 | 6.02 | 7.48 | 6.56 | 8
CS(=O)(=O)N(CCCN1CCOCC1)c1cc2oc(-c3ccc(F)cc3)c(C3=NOCCN3)c2cc1C1CC1 [Example 126, N-[5-cyclopropyl-3-(5,6-dihydro-4H-1,2,4-oxadiazin-3-yl)-2-(4-fluorophenyl)-1-benzofuran-6-yl]-N-[3-(morpholin-4-yl)propyl]methanesulfonamide] | 7.67 | 7.04 | 4 | 6.95 | 7.60 | 6.59 | 7.60 | 7.60 | 6.42 | 7.52 | 7.52 | 6.46 | 6.34 | 7.15 | 6.44 | 7.47 | 6.59 | 8
CS(=O)(=O)N(CCCO)c1cc2oc(-c3ccc(F)cc3)c(C3=NOCCN3)c2cc1C1CC1 [Example 137, N-[5-cyclopropyl-3-(5,6-dihydro-4H-1,2,4-oxadiazin-3-yl)-2-(4-fluorophenyl)-1-benzofuran-6-yl]-N-(3-hydroxypropyl)methanesulfonamide] | 8.38 | 7.41 | 9 | 7.10 | 7.82 | 7.23 | 7.82 | 7.82 | 6.95 | 7.77 | 7.77 | 6.74 | 6.67 | 7.48 | 6.76 | 8.00 | 6.97 | 11
COc1ccc(CN(c2cc3oc(-c4ccc(F)cc4)c(C4=NOCN4)c3cc2C2CC2)S(C)(=O)=O)cc1 [Example 145, N-[5-cyclopropyl-3-(4,5-dihydro-1,2,4-oxadiazol-3-yl)-2-(4-fluorophenyl)-1-benzofuran-6-yl]-N-(4-methoxybenzyl)methanesulfonamide] | 8.22 | 5.70 | 333 | 7.46 | 6.87 | 6.00 | 6.87 | 6.87 | 6.00 | 7.10 | 7.10 | 6.43 | 6.08 | 6.79 | < 6.00 | 7.00 | 6.00 | 10
CC(C)(O)C(O)CCN(c1cc2oc(-c3ccc(F)cc3)c(C3=NOCN3)c2cc1C1CC1)S(C)(=O)=O (stereo not drawn) [Example 146, N-[5-cyclopropyl-3-(4,5-dihydro-1,2,4-oxadiazol-3-yl)-2-(4-fluorophenyl)-1-benzofuran-6-yl]-N-(3,4-dihydroxy-4-methylpentyl)methanesulfonamide] | 8.31 | 7.35 | 9 | 7.60 | 7.90 | 5.78 | 7.90 | 7.90 | 5.57 | 7.75 | 7.75 | 6.75 | 6.77 | 7.77 | 6.56 | 7.95 | 6.63 | 21
